Measured values taken from patent US20100105628A1, “REDUCING POST-OPERATIVE ADHESION FORMATION WITH INTRAPERITONEAL GLUTAMINE” (UNIVERSITY OF SASKATCHEWAN, priority 2007, published 2010).
Converted amounts (≈) assume the structure as drawn. Peptide text beside a SMILES is read from it.

Columns and labels:
male Wistar rats = experiment: modified cecal puncture with pulstring, post-operative adhesion formation (Example 1); assay type: in vivo, rat; settings: for complications due to intraperitoneal use: 0.3-1.5 g/kg intra-peritoneally; for acute inflammatory response (macrophages and macrophage chemotactic proteins): days 3-7
Method: 70 plus male Wistar rats (over 350 g each) were assessed histologically on post-operative days 1, 3, 5, 7, 10, 30, and at about 6 weeks. The rats were randomly distributed based on the mode of treatment, type of sutures and presence or absence of hemorrhage during surgery. Initially, there were three surgery groups (alanyl-glutamine treatment, saline, no treatment) plus a control (no surgery). A fifth group using L-glutamine instead of alanyl-glutamine was included after preliminary results were obtained.
The rats were anaesthetized with halothane/Ketamine. Open surgery involving a midline sub-umbilical incision and a modified cecal puncture with pulstring to prevent soilage after abdominal closure was done. The procedure involved some fecal extrusion, mimicking clinical scenarios of iatrogenic/traumatic perforations of the bowel. Alanyl-glutamine [Degussa; Coubevoie, France] (0.3 g/kg-1.5 g/kg); saline (5 ml); or L-glutamine [Wiler; PCCA] (1.5 g/kg) was instilled into the peritoneal cavity from a syringe. The cecum, abdomen, and the skin were closed in layers using the same suture. Various absorbable (3/0 Vicryl™, 3/0 Monocryl™, 3/0 PDS™, 2/0 Maxon™) and non-absorbable sutures (3/0 Prolene™, 3/0 Ethibond™, 4/0 & 5/0 Surgilene™, 3/0 Novafil™) were used. The wound was infiltrated with local anesthetic. The animals were given sufficient chow to eat (20 g/day≈2 mmole/kg/day). The gastrointestinal tract and omentum were harvested from the stomach to the sigmoid colon and fixed in formaldehyde solution for evaluation.
The severity of adhesions was assessed histologically using standard Haematoxylin & Eosin and Masson trichrome stained slides. The latter helped delineate the degree of fibrosis and collagen deposition.
Semi-quantitative analysis was done by scoring the average number of milky spots per high-power-field (HPF). Quantitative statistical analysis was done using the T-test between the experimental groups. Milky spots are a marker for inflammation and adhesion formation.
We evaluated macrophage activity following the abdominal surgery using a macrophage chemotactic protein (MCP1) antibody stain. MCP1 is a marker for macrophage activity. […] The fact that MCP1 was reduced by the treatment but was not completely absent is significant since complete absence is not desirable as it is associated with peritonitis and septic complications post-laparotomy.

rats = experiment: cecal puncture with Marlex mesh inserted, adhesion score of Zuhlke (Example 2); assay type: in vivo, rat; settings: day 90
Method: Previous studies show a high incidence of adhesion formation when surgical mesh is employed as a reinforcing material [6a, 6b]. We repeated trials as described in Example 1, inserting Marlex™ mesh during the procedure on the surgical groups.
Severity of adhesions was assessed at day 90 using the adhesion score of Zuhlke, et al.. This scoring procedure has been described in the literature for assessment of other potential treatments for adhesions. […] This differs from previous measurements of adhesions using polypropylene mesh which reported up to about 90% adhesion formation [6a].

Sprague-Dawley rats = experiment: secondary adhesions after adhesiolysis, mesh implanted (Example 3); assay type: in vivo, rat; settings: three weeks after adhesiolysis and alanyl-glutamine; six months after initial surgery with mesh
Method: Adhesions tend to recur once in place. We examined the effect of alanyl-glutamine treatment on such secondary adhesions. The modified cecal perforation with pulstring closure procedure described in Example 1 was performed on 9 Sprague-Dawley rats. These were divided into 5 groups, each group receiving a different form of mesh (INTERCEED™; PROCEED™; BARD™ composite; prolene; and a mesh which was allowed to be “infected” by repeated re-opening of the wound). The surgical procedure with mesh implacement was performed without application of a glutamine source. Six months after initial surgery, a laparotomy was performed on each rat then adhesiolysis followed by installation of alanyl-glutamine.

[1] = cited from earlier work
[2] = versus saline and non-treatment surgical groups

Structure (SMILES) | complications due to intraperitoneal use (male Wistar rats) | effectiveness of dosage (male Wistar rats; 0.3 g/kg intraperitoneal) | effectiveness of dosage (male Wistar rats; 1.5 g/kg intraperitoneal) | histological appearance of the peritoneum, adhesion (male Wistar rats; 10th post-operative day, intraperitoneal, compared with untreated and saline treated surgical groups) | fibrosis and collagen deposition (male Wistar rats; day-10 animals, versus saline and non-treatment surgical groups) | acute inflammatory response (macrophages and macrophage chemotactic proteins) (male Wistar rats; [2]) | milky spots per 5 high power field (5HPF) (male Wistar rats; peritoneum, controls 1 per 5HPF, untreated surgical group 6-7 per 5HPF) | adhesions in all the suture groups (braided and monofilament) (male Wistar rats; rat, in vivo) | adhesion, histological, later assessment (male Wistar rats; rats assessed at 6 weeks) | adhesion score of Zuhlke (rats) | recurrence of adhesions (secondary adhesions), scored according to Zuhlke (Sprague-Dawley rats) | solubility in water [1] [mg/mL] | water solubility ([1]; at 20° C.) [mg/mL]
C[C@H](N)C(=O)N[C@@H](CCC(N)=O)C(=O)O [alanyl-glutamine] (H-Ala-Gln-OH) | did not observe complications | effective | effective | very minimal adhesion | reduced | markedly reduced | the same as the controls | prevented adhesions | This result continued | 0-1 | no secondary adhesions were seen | 568 (≈ 2610 mM) | 
NCC(=O)N[C@@H](CCC(N)=O)C(=O)O [Glycyl-glutamine] (H-Gly-Gln-OH) |  |  |  |  |  |  |  |  |  |  |  | 154 (≈ 758 mM) | 
NC(=O)CC[C@H](N)C(=O)O [L-glutamine] | did not observe complications |  |  |  |  | reduction, but to a lesser extent |  |  |  |  |  |  | 36 (≈ 246 mM)
